In US12421240B2, “Hydropyrazino[1,2-d][1,4]diazepine compounds for the treatment of autoimmune disease” (Hoffmann-La Roche Inc., priority 2019, dated 2025):

Target: T1, human TLR7 (Homo sapiens, UniProt Q9NYK1)
T1 sequence (Q9NYK1 27-1049): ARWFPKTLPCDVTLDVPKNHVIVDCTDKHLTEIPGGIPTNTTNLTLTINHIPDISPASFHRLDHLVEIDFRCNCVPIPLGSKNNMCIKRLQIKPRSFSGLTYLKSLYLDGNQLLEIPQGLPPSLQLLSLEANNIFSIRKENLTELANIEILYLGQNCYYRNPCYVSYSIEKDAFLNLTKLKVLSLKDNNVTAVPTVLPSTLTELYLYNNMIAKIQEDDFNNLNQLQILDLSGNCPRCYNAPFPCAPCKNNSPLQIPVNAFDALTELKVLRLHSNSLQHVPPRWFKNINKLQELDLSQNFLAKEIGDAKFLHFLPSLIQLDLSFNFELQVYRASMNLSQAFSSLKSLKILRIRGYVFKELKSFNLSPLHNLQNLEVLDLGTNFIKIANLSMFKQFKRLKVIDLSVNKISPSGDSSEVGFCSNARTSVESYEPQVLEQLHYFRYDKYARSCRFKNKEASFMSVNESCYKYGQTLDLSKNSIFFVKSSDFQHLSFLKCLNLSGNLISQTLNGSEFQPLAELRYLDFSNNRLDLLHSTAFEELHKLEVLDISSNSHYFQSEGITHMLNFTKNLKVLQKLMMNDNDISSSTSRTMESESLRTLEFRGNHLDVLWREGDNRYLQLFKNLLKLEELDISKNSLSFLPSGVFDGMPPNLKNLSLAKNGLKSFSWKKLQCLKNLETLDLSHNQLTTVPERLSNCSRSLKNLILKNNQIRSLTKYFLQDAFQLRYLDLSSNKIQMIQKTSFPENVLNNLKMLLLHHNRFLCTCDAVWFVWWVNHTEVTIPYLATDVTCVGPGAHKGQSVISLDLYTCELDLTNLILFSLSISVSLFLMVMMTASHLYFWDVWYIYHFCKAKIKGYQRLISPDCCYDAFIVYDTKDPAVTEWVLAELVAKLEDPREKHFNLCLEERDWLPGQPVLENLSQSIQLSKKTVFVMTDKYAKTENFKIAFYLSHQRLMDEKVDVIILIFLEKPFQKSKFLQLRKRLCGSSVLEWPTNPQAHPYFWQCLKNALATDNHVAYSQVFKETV
Assay: HEK293-Blue-hTLR-7 cells assay (SEAP reporter, R848 stimulation)
Assay type: cell-based
Settings: HEK293-Blue-hTLR7 cells, R848 ligand, 20 hrs; read-out: HEK/hTLR7 IC50
Protocol: The following tests were carried out in order to determine the activity of the compounds of formula (I), (Ia) or (Ib) in HEK293-Blue-hTLR-7/8/9 cells assay.
HEK293-Blue-hTLR-7 Cells Assay:
A stable HEK293-Blue-hTLR-7 cell line was purchased from InvivoGen (Cat. #: hkb-htlr7, San Diego, California, USA). These cells were originally designed for studying the stimulation of human TLR7 by monitoring the activation of NF-κB. A SEAP (secreted embryonic alkaline phosphatase) reporter gene was placed under the control of the IFN-β minimal promoter fused to five NF-κB and AP-1-binding sites. The SEAP was induced by activating NF-κB and AP-1 via stimulating HEK-Blue hTLR7 cells with TLR7 ligands. Therefore the reporter expression was declined by TLR7 antagonist under the stimulation of a ligand, such as R848 (Resiquimod), for incubation of 20 hrs. The cell culture supernatant SEAP reporter activity was determined using QUANTI-Blue™ kit (Cat. #: rep-qb1, Invivogen, San Diego, Ca., USA) at a wavelength of 640 nm, a detection medium that turns purple or blue in the presence of alkaline phosphatase.
HEK293-Blue-hTLR7 cells were incubated at a density of 250,000-450,000 cells/mL in a volume of 170 μL in a 96-well plate in Dulbecco's Modified Eagle's medium (DMEM) containing 4.5 g/L glucose, 50 U/mL penicillin, […], […], 2 mM L-glutamine, 10% (v/v) heat-inactivated fetal bovine serum with addition of 20 μL test compound in a serial dilution in the presence of final DMSO at 1% and 10 μL of 20 uM R848 in above DMEM, perform incubation under 37° C. in a CO2 incubator for 20 hrs. Then 20 μL of the supernatant from each well was incubated with 180 μL Quanti-blue substrate solution at 37° C. for 2 hrs and the absorbance was read at 620655 nm using a spectrophotometer. The signaling pathway that TLR7 activation leads to downstream NF-κB activation has been widely accepted, and therefore similar reporter assay was modified for evaluating TLR7 antagonist.

Compound	IC50
C[C@@H]1CN(c2ccc(C#N)c3ncccc23)C[C@@H]2CCN(c3ccc(N4CCNCC4)nc3)CCN21 [Example 1, 5-[(4R,10aS)-4-methyl-8-(6-piperazin-1-yl-3-pyridyl)-1,3,4,6,7,9,10,10a-octahydropyrazino [1,2-d][1,4]diazepin-2-yl]quinoline-8-carbonitrile]	88.5 nM
C[C@@H]1CN(c2ccc(C#N)c3ncccc23)C[C@@H]2CCN(c3cnc(N4CCNCC4)nc3)CCN21 [Example 2, 5-[(4R,10aS)-4-methyl-8-(2-piperazin-1-ylpyrimidin-5-yl)-1,3,4,6,7,9,10,10a-octahydropyrazino[1,2-d][1,4]diazepin-2-yl]quinoline-8-carbonitrile]	58.6 nM
C[C@@H]1CN(c2ccc(C#N)c3ncccc23)C[C@@H]2CCN(c3ccc([C@H]4CNCCO4)cc3)CCN21 [Example 3, 5-[(4R,10aS)-4-methyl-8-[4-[(2S)-morpholin-2-yl]phenyl]-1,3,4,6,7,9,10,10a-octahydropyrazino[1,2-d][1,4]diazepin-2-yl]quinoline-8-carbonitrile]	54 nM
C[C@@H]1CN(c2ccc(C#N)c3ncccc23)C[C@@H]2CCN(c3cncc4c3CCNC4)CCN21 [Example 4, 5-[(4R,10aS)-4-methyl-8-(5,6,7,8-tetrahydro-2,7-naphthyridin-4-yl)-1,3,4,6,7,9,10,10a-octahydropyrazino[1,2-d][1,4]diazepin-2-yl]quinoline-8-carbonitrile]	17.8 nM
C[C@@H]1CN(c2ccc(C#N)c3ncccc23)C[C@@H]2CCN(c3ccc4c(n3)CNCC4)CCN21 [Example 5, 5-[(4R,10aS)-4-methyl-8-(5,6,7,8-tetrahydro-1,7-naphthyridin-2-yl)-1,3,4,6,7,9,10,10a-octahydropyrazino[1,2-d][1,4]diazepin-2-yl]quinoline-8-carbonitrile]	38.5 nM
C[C@@H]1CN(c2ccc(C#N)c3ncccc23)C[C@@H]2CCN(c3ccc4c(n3)CCNC4)CCN21 [Example 6, 5-[(4R,10aS)-4-methyl-8-(5,6,7,8-tetrahydro-1,6-naphthyridin-2-yl)-1,3,4,6,7,9,10,10a-octahydropyrazino[1,2-d][1,4]diazepin-2-yl]quinoline-8-carbonitrile]	48.1 nM
C[C@@H]1CN(c2ccc(C#N)c3ncccc23)C[C@@H]2CCN(c3cc4c(cn3)CNCC4)CCN21 [Example 7, 5-[(4R,10aS)-4-methyl-8-(5,6,7,8-tetrahydro-2,7-naphthyridin-3-yl)-1,3,4,6,7,9,10,10a-octahydropyrazino[1,2-d][1,4]diazepin-2-yl]quinoline-8-carbonitrile]	61.3 nM
C[C@@H]1CN(c2ccc(C#N)c3ncccc23)C[C@@H]2CCN(Cc3cc4c(cn3)CNCC4)CCN21 [Example 8, 5-[(4R,10aS)-4-methyl-8-(5,6,7,8-tetrahydro-2,7-naphthyridin-3-ylmethyl)-1,3,4,6,7,9,10,10a-octahydropyrazino[1,2-d][1,4]diazepin-2-yl]quinoline-8-carbonitrile]	14.3 nM
C[C@@H]1CN(c2ccc(C#N)c3ncccc23)C[C@@H]2CCN(Cc3cc4c(cn3)CCNC4)CCN21 [Example 9, 5-[(4R,10aS)-4-methyl-8-(5,6,7,8-tetrahydro-2,6-naphthyridin-3-ylmethyl)-1,3,4,6,7,9,10,10a-octahydropyrazino[1,2-d][1,4]diazepin-2-yl]quinoline-8-carbonitrile]	8.2 nM
C[C@@H]1CN(c2ccc(C#N)c3ncccc23)C[C@@H]2CCN(Cc3cnc4c(c3)CNCC4)CCN21 [Example 10, 5-[(4R,10aS)-4-methyl-8-(5,6,7,8-tetrahydro-1,6-naphthyridin-3-ylmethyl)-1,3,4,6,7,9,10,10a-octahydropyrazino[1,2-d][1,4]diazepin-2-yl]quinoline-8-carbonitrile]	9.3 nM
C[C@@H]1CN(c2ccc(C#N)c3ncccc23)C[C@@H]2CCN(Cc3ccc4c(c3)CNCC4)CCN21 [Example 12, 5-[(4R,10aS)-4-methyl-8-(1,2,3,4-tetrahydroisoquinolin-7-ylmethyl)-1,3,4,6,7,9,10,10a-octahydropyrazino[1,2-d][1,4]diazepin-2-yl]quinoline-8-carbonitrile]	4.5 nM
